Source: PubChem BioAssay (NCI)
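All cell lines were grown in 96-well plates and treated with compound for 48 hours. At the GI50, growth is halved. TGI is the concentration that stops growth completely.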

What was measured:
Assay in all cases: growth of human tumour cells (NCI), 48 h
[1] = test system: A549 NSCLC
[2] = test system: CCRF-CEM leukemia
[3] = test system: HCT-116 colon
[4] = test system: NCI-H522 lung
[5] = test system: OVCAR-3 ovarian
[6] = test system: OVCAR-8 ovarian
[7] = test system: SK-MEL-2 melanoma
[8] = test system: SN12C renal
[9] = test system: NCI-H226 lung
[10] = test system: NCI-H460 lung

Compound | TGI [1] | TGI [2] | TGI [3] | TGI [4] | TGI [5] | TGI [6] | TGI [7] | TGI [8] | TGI [9] | TGI [10] | GI50 [2] | GI50 [3] | GI50 [10] | GI50 [6] | GI50 [7]
COc1c(OC/C=C(\C)CCC=C(C)C)ccc2ccc(=O)oc12 | > 100 µM | > 100 µM | > 100 µM | > 100 µM | > 100 µM | > 100 µM | > 100 µM | > 100 µM | – | – | – | – | – | – | –
O=C(Nc1ccc(Cl)c(Cl)c1)N1N=C2c3ccccc3CCC2C1c1ccc(Cl)cc1 (stereo not given) | > 100 µM | > 100 µM | > 100 µM | > 100 µM | > 100 µM | > 100 µM | > 100 µM | > 100 µM | > 100 µM | > 100 µM | – | – | – | – | –
COc1cc(/C=C/C(=O)CC(=O)/C=C/c2ccc(O)c(OC)c2)ccc1O | 31.7 µM | 15.6 µM | 9.36 µM | 16.7 µM | 24.7 µM | 28.4 µM | 40.3 µM | 25.1 µM | 53.7 µM | 23.1 µM | – | – | – | – | –
Br/C(=N\Nc1nn[nH]n1)c1ccncc1 | > 100 µM | > 100 µM | > 100 µM | > 100 µM | > 100 µM | > 100 µM | > 100 µM | > 100 µM | > 100 µM | > 100 µM | – | – | – | – | –
c1ccc(C[N+]23CN4CN(CN(C4)C2)C3)cc1 | 91.8 µM | 32.9 µM | 85.3 µM | > 100 µM | > 100 µM | 81.8 µM | 34.6 µM | > 100 µM | > 100 µM | > 100 µM | – | – | – | – | –
C=CCNS(=O)(=O)c1ncnc2nc[nH]c12 | > 100 µM | > 100 µM | > 100 µM | > 100 µM | > 100 µM | > 100 µM | > 100 µM | > 100 µM | > 100 µM | – | – | – | – | – | –
COc1cc(S(=O)(=O)Nc2nc(-c3ccc(N4C(=O)/C(=C/c5ccccc5[N+](=O)[O-])N=C4c4ccccc4)cc3)cs2)ccc1Cl | > 100 µM | > 100 µM | > 100 µM | > 100 µM | > 100 µM | > 100 µM | > 100 µM | > 100 µM | > 100 µM | > 100 µM | – | – | – | – | –
SC1CCCN(Cc2ccccc2)C1 (stereo not given) | > 100 µM | – | > 100 µM | > 100 µM | > 100 µM | > 100 µM | > 100 µM | > 100 µM | > 100 µM | 64.7 µM | – | – | – | – | –
Cn1c2c3ccc(Cl)cc3nc-2c(Cl)c2ccccc21 | > 100 µM | > 100 µM | 4.99 µM | 33.6 µM | 29.7 µM | > 100 µM | 48.2 µM | 34.5 µM | 62.5 µM | 43.8 µM | – | – | – | – | –
CCCC(=O)O.CCCC(=O)O.CCCC(=O)O.CCCC(=O)O.[Rh].[Rh] | – | 1.08 µM | 0.0433 µM | – | – | 0.428 µM | 0.896 µM | – | – | 0.327 µM | 0.0277 µM | 0.0198 µM | 0.165 µM | 0.0435 µM | 0.285 µM
CC(C)(C)OC(=O)NC1CCC(C(C)(C)C)CC1 (stereo not given) | > 100 µM | > 100 µM | > 100 µM | > 100 µM | > 100 µM | > 100 µM | 71.3 µM | > 100 µM | > 100 µM | > 100 µM | – | – | – | – | –
O=C(/C=C/c1ccccc1)N1CCCCC1 | > 100 µM | > 100 µM | > 100 µM | > 100 µM | > 100 µM | > 100 µM | > 100 µM | > 100 µM | > 100 µM | > 100 µM | – | – | – | – | –
O=C(Oc1ccc(Cl)cc1[N+](=O)[O-])c1ccccc1 | > 100 µM | > 100 µM | > 100 µM | – | > 100 µM | > 100 µM | > 100 µM | > 100 µM | > 100 µM | > 100 µM | – | – | – | – | –
